Experimental data: patent publication US20130344026A1, “Dimeric Smac Mimetics” (priority 2009, published 2013)
Read-outs that look alike come from different tables or passages of the source. Values belong to the compound of their own block, whether it stands above or below them. *1 amine or outer side, *2 acyl side, *3 side chain or, on linkers, in order; H or OH if unused. Where a SMILES comes first, the peptide text is derived from it. Bridges are numbered along the chain shown (N, C = ends). Roman numbers before positions name the chains, in order. [ ]: non-standard residue; d: D form. NH(CH2)8NH = C(CCCCN[*:2])CCCN[*:1]; Chg = N[C@H](C(=O)O)C1CCCCC1; Tle = CC(C)(C)[C@H](N)C(=O)O; NMeA = CN[C@@H](C)C(=O)O

Tested on: HCC461
Assay: cell viability assay in HCC461, compound alone
Format: cell-based
[1] = HCC461, Tables 15-18, read-out: IC50 (uM) in cell viability assay in HCC461
[2] = HCC461, HCC461, Tables 6-9, read-out: IC50 (μM) in cell viability assay in HCC461
[3] = HCC461, HCC461 cells, compound alone, read-out: IC50 (uM) in cell viability assay in HCC461
[4] = HCC461, HCC461, Tables 15-18, read-out: IC50 (uM) in cell viability assay in HCC461

Structure (SMILES): CN[C@@H](C)C(=O)N[C@H](C(=O)N1CCC[C@H]1C(=O)N[C@H](CNC(=O)C1CCCCC1C(=O)NC[C@@H](NC(=O)[C@@H]1CCCN1C(=O)[C@@H](NC(=O)[C@H](C)NC)C(C)(C)C)C1CCCCC1)C1CCCCC1)C(C)(C)C (single isomer, unassigned) [Compound P4-3]
- IC50 [1]: 0.03 µM

Structure (SMILES): CN[C@@H](C)C(=O)N[C@H](C(=O)N[C@@H](CCCCNC(=O)c1cccc(C(=O)N[C@H]2CC(C(=O)N[C@H](C)c3ccccc3)N(C(=O)[C@@H](NC(=O)[C@H](C)NC)C(C)(C)C)C2)c1)C(=O)N[C@@H](C)C(C)C)C(C)C (stereo partly drawn) [Compound 162]
- IC50 [2]: > 30 µM

Structure (SMILES): CN[C@@H](C)C(=O)N[C@@H](CCCCCC[C@H](NC(=O)[C@H](C)NC)C(=O)N1CCC[C@H]1C(=O)NC1c2ccccc2-c2ccccc21)C(=O)N1CCC[C@H]1C(=O)NC1c2ccccc2-c2ccccc21 [Compound P2-6]
- IC50 [4]: 0.024 µM

Structure (SMILES): CN[C@@H](C)C(=O)N[C@H](C(=O)N1CCC[C@H]1C(=O)N[C@H](CNC(=O)c1cc(N)cc(C(=O)NC[C@@H](NC(=O)[C@@H]2CCCN2C(=O)[C@@H](NC(=O)[C@H](C)NC)C(C)(C)C)C2CCCCC2)c1)C1CCCCC1)C(C)(C)C [Compound P4-9]
- IC50 [4]: 0.53 µM

Structure (SMILES): CN[C@@H](CO)C(=O)N[C@@H](CC#CC#CC[C@H](NC(=O)[C@H](CO)NC)C(=O)N1CCC[C@H]1C(=O)NC1c2ccccc2-c2ccccc21)C(=O)N1CCC[C@H]1C(=O)NC1c2ccccc2-c2ccccc21 [Compound P2-17]
- IC50 [4]: 0.134 µM

Structure (SMILES): CN[C@@H](C)C(=O)N[C@H](C(=O)N1C[C@@H](NC(=O)c2cccc(C(=O)N[C@H]3C[C@@H](C(=O)N(C)Cc4ccccc4)N(C(=O)[C@@H](NC(=O)[C@H](C)NC)C(C)(C)C)C3)c2)C[C@H]1C(=O)N(C)Cc1ccccc1)C(C)(C)C [Compound P3-49]
- IC50 [3]: 0.141 µM

Structure (SMILES): CN[C@@H](C)C(=O)N[C@H](C(=O)N1C[C@@H](NC(=O)c2cccc(C(=O)N[C@H]3C[C@@H](C(=O)N[C@@H]4CCCc5ccccc54)N(C(=O)[C@@H](NC(=O)[C@H](C)NC)C(C)(C)C)C3)c2)C[C@H]1C(=O)N[C@H](C)C(C)C)C(C)C [Compound 133]
- IC50 [2]: 0.016 µM

Structure (SMILES): CN[C@@H](C)C(=O)NC(C(=O)N1CCC[C@H]1C(=O)NC1CCCc2ccccc21)c1ccc(C#Cc2ccc(C(NC(=O)[C@H](C)NC)C(=O)N3CCC[C@H]3C(=O)NC3CCCc4ccccc43)cc2)cc1 (stereo partly drawn) [Compound P2-1]
- IC50 [4]: 0.018 µM

Structure (SMILES): C#CC[C@H](NC(=O)[C@H](C)NC)C(=O)N1C[C@@H](n2cc(C[C@H](NC(=O)[C@H](C)NC)C(=O)N3C[C@@H](N=[N+]=[N-])C[C@H]3C(=O)N[C@@H]3CCCc4ccccc43)nn2)C[C@H]1C(=O)N[C@@H]1CCCc2ccccc21 [Compound H-2]
- IC50 [4]: 0.114 µM

Structure (SMILES): CN[C@@H](C)C(=O)N[C@@H](CCCCCC[C@H](NC(=O)[C@H](C)NC)C(=O)N1C[C@@H](NC(=O)c2ccccc2)C[C@H]1C(=O)N[C@@H]1CCCc2ccccc21)C(=O)N1C[C@@H](NC(=O)c2ccccc2)C[C@H]1C(=O)N[C@@H]1CCCc2ccccc21 [Compound P2-13]
- IC50 [1]: 0.168 µM

Structure (SMILES): CN[C@@H](C)C(=O)N[C@@H](C)C(=O)N[C@H]1C[C@@H](C(=O)N[C@@H]2CCCc3ccccc32)N(C(=O)[C@@H](NC(=O)[C@H](C)NC)C(C)(C)C)C1 [Compound 146]
- IC50 [2]: > 30 µM

Structure (SMILES): CN[C@@H](C)C(=O)N[C@H](C(=O)N1C[C@@H](n2cc(CNC(=O)NCc3cn([C@H]4C[C@@H](C(=O)N[C@@H]5CCCc6ccccc65)N(C(=O)[C@@H](NC(=O)[C@H](C)NC)C(C)(C)C)C4)nn3)nn2)C[C@H]1C(=O)N[C@@H]1CCCc2ccccc21)C(C)(C)C [Compound P3-5]
- IC50 [3]: 0.061 µM

Structure (SMILES): CN[C@@H](C)C(=O)N[C@H](C(=O)N[C@@H](CCCCNC(=O)c1cccc(C(=O)N[C@H]2CC(C(=O)N[C@@H]3CCc4ccccc4C3)N(C(=O)[C@@H](NC(=O)[C@H](C)NC)C(C)(C)C)C2)c1)C(=O)N[C@@H](C)C(C)C)C(C)(C)C (stereo partly drawn) [Compound 161]
- IC50 (HCC461, Tables 6-9, read-out: IC50 (μM) in cell viability assay in HCC461): 2.5 µM

Structure (SMILES): CN[C@@H](C)C(=O)N[C@H](C(=O)N1CCC[C@H]1C(=O)NC1c2ccccc2-c2ccccc21)[C@@H](C)OCC#CC#CCO[C@H](C)[C@H](NC(=O)[C@H](C)NC)C(=O)N1CCC[C@H]1C(=O)NC1c2ccccc2-c2ccccc21 [Compound P2-15]
- IC50 [4]: 0.07 µM

More lines, now with the values ahead:

- IC50 [3]: 0.017 µM
Structure (SMILES): CN[C@@H](C)C(=O)N[C@H](C(=O)N1C[C@@H](NC(=O)CC(C)(C)CC(=O)N[C@H]2C[C@@H](C(=O)N[C@@H]3CCCc4ccccc43)N(C(=O)[C@@H](NC(=O)[C@H](C)NC)C(C)(C)C)C2)C[C@H]1C(=O)N[C@@H]1CCCc2ccccc21)C(C)(C)C [Compound P3-33]

- IC50 [3]: 0.075 µM
Structure (SMILES): CN[C@@H](C)C(=O)N[C@H](C(=O)N1C[C@@H](NC(=O)c2cc(OC)cc(C(=O)N[C@H]3C[C@@H](C(=O)N[C@H](C)c4ccccc4)N(C(=O)[C@@H](NC(=O)[C@H](C)NC)C(C)(C)C)C3)c2)C[C@H]1C(=O)N[C@H](C)c1ccccc1)C(C)(C)C [Compound P3-73]

- IC50 [4]: 0.205 µM
Structure (SMILES): CN[C@@H](C)C(=O)N[C@H](C(=O)N1CCC[C@H]1C(=O)N[C@H](C(=O)NCCCCCCCCNC(=O)[C@@H](NC(=O)[C@@H]1CCCN1C(=O)[C@@H](NC(=O)[C@H](C)NC)C(C)(C)C)C1CCCCC1)C1CCCCC1)C(C)(C)C [Compound P4-7] (I: H-[NMeA][Tle]P[Chg] / II: H-[NMeA][Tle]P[Chg]; linker I:C-II:C via NH(CH2)8NH)

- IC50 [3]: 0.008 µM
Structure (SMILES): CN[C@@H](C)C(=O)N[C@H](C(=O)N1C[C@@H](NC(=O)Cc2ccc(CC(=O)N[C@H]3C[C@@H](C(=O)N[C@@H]4CCCc5ccccc54)N(C(=O)[C@@H](NC(=O)[C@H](C)NC)C(C)(C)C)C3)cc2)C[C@H]1C(=O)N[C@@H]1CCCc2ccccc21)C(C)(C)C [Compound P3-18]

- IC50 [3]: 0.008 µM
Structure (SMILES): CN[C@@H](C)C(=O)N[C@H](C(=O)N1C[C@@H](NC(=O)c2cc(C(=O)N[C@H]3C[C@@H](C(=O)NC(c4ccccc4)c4ccccc4)N(C(=O)[C@@H](NC(=O)[C@H](C)NC)C(C)(C)C)C3)[nH]n2)C[C@H]1C(=O)NC(c1ccccc1)c1ccccc1)C(C)(C)C [Compound P3-64]

- IC50 [3]: 0.014 µM
Structure (SMILES): CN[C@@H](C)C(=O)N[C@H](C(=O)N1C[C@@H](NC(=O)c2cccc(C(=O)N[C@H]3C[C@@H](C(=O)N[C@H](C)c4ccccc4)N(C(=O)[C@@H](NC(=O)[C@H](C)NC)C4CCCCC4)C3)c2)C[C@H]1C(=O)N[C@H](C)c1ccccc1)C1CCCCC1 [Compound P3-77]

- IC50 [3]: 0.198 µM
Structure (SMILES): C#CC[C@H](NC(=O)[C@H](C)NC)C(=O)N1C[C@@H](NC(=O)c2cc(N)cc(C(=O)N[C@H]3C[C@@H](C(=O)N[C@@H]4CCCc5ccccc54)N(C(=O)[C@H](CC#C)NC(=O)[C@H](C)NC)C3)c2)C[C@H]1C(=O)N[C@@H]1CCCc2ccccc21 [Compound P3-62]

- IC50 [3]: 0.091 µM
Structure (SMILES): CN[C@@H](C)C(=O)N[C@H](C(=O)N1C[C@@H](NC(=O)c2cc(N)cc(C(=O)N[C@H]3C[C@@H](C(=O)N[C@@H]4CCCc5ccccc54)N(C(=O)[C@@H](NC(=O)[C@H](C)NC)C(C)C)C3)c2)C[C@H]1C(=O)N[C@@H]1CCCc2ccccc21)C(C)C [Compound P3-56]

- IC50 [3]: 0.258 µM
Structure (SMILES): CN[C@@H](C)C(=O)N[C@H](C(=O)N1C[C@@H](NC(=O)C[C@H](NC(=O)OCC2c3ccccc3-c3ccccc32)C(=O)N[C@H]2C[C@@H](C(=O)N[C@@H]3CCCc4ccccc43)N(C(=O)[C@@H](NC(=O)[C@H](C)NC)C(C)(C)C)C2)C[C@H]1C(=O)N[C@@H]1CCCc2ccccc21)C(C)(C)C [Compound P3-66]

- IC50 [3]: 0.008 µM
Structure (SMILES): CN[C@@H](C)C(=O)N[C@H](C(=O)N1C[C@@H](NC(=O)c2ccccc2C(=O)N[C@H]2C[C@@H](C(=O)N[C@@H]3CCCc4ccccc43)N(C(=O)[C@@H](NC(=O)[C@H](C)NC)C(C)(C)C)C2)C[C@H]1C(=O)N[C@@H]1CCCc2ccccc21)C(C)(C)C [Compound P3-20]
